Experimental findings from PubChem BioAssay AID1259411 (Chemical Carcinogenesis Research Information System (CCRIS), 2018) are described below.

Structures are written as SMILES. Active and inactive are the calls of the source. The rule behind the calls is not given here.

The subject of the series is rodent carcinogenicity bioassays, tumor incidence. Nature of the series: CCRIS carcinogenicity studies. The note with it: Dose: 0, Dose: 0. The method in brief:
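NCI-built, expert-reviewed records of carcinogenicity and related test outcomes (mutagenicity, tumor promotion/inhibition) compiled from published and report sources, historical span 1985-2011, not updated.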

For `CN1C(=O)C(O)N=C(c2ccccc2)c2cc(Cl)ccc21` (stereo unspecified), the carcinogen call is “inactive; negative” (Species: MOUSE, Strain/Sex: CD-1/FEMALE, Route: ORAL, 10, 80, 160 MG/KG/D IN DIET FOR 18 MO (STUDY DURATION: 18 MO), 10, 80, 160 MG/KG/D IN DIET FOR 18 MO (STUDY DURATION: 18 MO)); “inactive; negative” (Species: MOUSE, Strain/Sex: CD-1/MALE, Route: ORAL, 10, 80, 160 MG/KG/D IN DIET FOR 18 MO (STUDY DURATION: 18 MO), 10, 80, 160 MG/KG/D IN DIET FOR 18 MO (STUDY DURATION: 18 MO)); “inactive; negative” (Species: RAT, Strain/Sex: STRAIN-CD/FEMALE, Route: ORAL, 10, 40, 160 MG/KG/D IN DIET FOR 2 YR (STUDY DURATION: 2 YR), 10, 40, 160 MG/KG/D IN DIET FOR 2 YR (STUDY DURATION: 2 YR)); “inactive; negative” (Species: RAT, Strain/Sex: STRAIN-CD/MALE, Route: ORAL, 10, 40, 160 MG/KG/D IN DIET FOR 2 YR (STUDY DURATION: 2 YR), 10, 40, 160 MG/KG/D IN DIET FOR 2 YR (STUDY DURATION: 2 YR)).

On to `COC(C)(C)C`, for which the carcinogen call (Species: MOUSE, Strain/Sex: CD-1/FEMALE, Route: INHALATION, 400, 3000, 8000 PPM IN AIR 6 HR/D 5 D/WK FOR 18 MO (STUDY DURATION: 18 MO), 400, 3000, 8000 PPM IN AIR 6 HR/D 5 D/WK FOR 18 MO (STUDY DURATION: 18 MO), Tumor Site: Type of Lesion: LIVER: ADENOMA) is “active; positive”; the carcinogen call (Species: MOUSE, Strain/Sex: CD-1/MALE, Route: INHALATION, 400, 3000, 8000 PPM IN AIR 6 HR/D 5 D/WK FOR 18 MO (STUDY DURATION: 18 MO), 400, 3000, 8000 PPM IN AIR 6 HR/D 5 D/WK FOR 18 MO (STUDY DURATION: 18 MO)) is “inactive; negative”; the carcinogen call (Species: RAT, Strain/Sex: F344/FEMALE, Route: INHALATION, 400, 3000, 8000 PPM IN AIR 6 HR/D 5 D/WK FOR 24 MO (STUDY DURATION: 24 MO), 400, 3000, 8000 PPM IN AIR 6 HR/D 5 D/WK FOR 24 MO (STUDY DURATION: 24 MO)) is “inactive; negative”; the carcinogen call (Species: RAT, Strain/Sex: F344/MALE, Route: INHALATION, 400, 3000, 8000 PPM IN AIR 6 HR/D 5 D/WK FOR 24 MO (STUDY DURATION: 24 MO), 400, 3000, 8000 PPM IN AIR 6 HR/D 5 D/WK FOR 24 MO (STUDY DURATION: 24 MO), Tumor Site: Type of Lesion: KIDNEY(RENAL TUBULE): ADENOMA OR CARCINOMA) was “active; positive”; the carcinogen call (Species: RAT, Strain/Sex: SPRAGUE-DAWLEY/FEMALE, Route: GAVAGE, 250, 1000 MG/KG BW IN 1 ML OLIVE OIL 1/D 4 D/WK FOR 104 WK (STUDY DURATION: 166 WK), 250, 1000 MG/KG BW IN 1 ML OLIVE OIL 1/D 4 D/WK FOR 104 WK (STUDY DURATION: 166 WK), Tumor Site: Type of Lesion: HEMOLYMPHORETICULAR SYSTEM: LYMPHOMA OR LEUKEMIA) is “active; positive”; the carcinogen call (Species: RAT, Strain/Sex: SPRAGUE-DAWLEY/FEMALE, Route: GAVAGE, 250, 1000 MG/KG BW IN OLIVE OIL 1/D 4D/WK FOR 104 WK (STUDY DURATION: LIFE SPAN), 250, 1000 MG/KG BW IN OLIVE OIL 1/D 4D/WK FOR 104 WK (STUDY DURATION: LIFE SPAN), Tumor Site: Type of Lesion: MULTIPLE SITES: LYMPHOMA OR LEUKEMIA) was “active; positive”. Besides, the carcinogen call (Species: RAT, Strain/Sex: SPRAGUE-DAWLEY/MALE, Route: GAVAGE, 250, 1000 MG/KG BW IN 1 ML OLIVE OIL 1/D 4 D/WK FOR 104 WK (STUDY DURATION: 166 WK), 250, 1000 MG/KG BW IN 1 ML OLIVE OIL 1/D 4 D/WK FOR 104 WK (STUDY DURATION: 166 WK), Tumor Site: Type of Lesion: TESTES: LEYDIG CELL TUMOR) was “active; positive” and the carcinogen call (Species: RAT, Strain/Sex: SPRAGUE-DAWLEY/MALE, Route: GAVAGE, 250, 1000 MG/KG BW IN OLIVE OIL 1/D 4D/WK FOR 104 WK (STUDY DURATION: LIFE SPAN), 250, 1000 MG/KG BW IN OLIVE OIL 1/D 4D/WK FOR 104 WK (STUDY DURATION: LIFE SPAN), Tumor Site: Type of Lesion: TESTES: LEYDIG CELL TUMOR) was “active; positive”.

Regarding `Oc1ccc2ccc3c4ccc5ccccc5c4c4c(c3c2c1O)O4`, the carcinogen call (Species: MOUSE, Strain/Sex: ICR/FEMALE, Route: INTRAPERITONEAL, 25 NMOL (TOTAL DOSE) ADMINISTERED IN DOSES OF 1/7, 2/7, AND 4/7 ON DAYS 1, 7, AND 15 OF LIFE, RESPECTIVELY (STUDY DUR, Tumor Site: Type of Lesion: LUNG: TUMOR) was “active; positive”; the carcinogen call (Species: MOUSE, Strain/Sex: ICR/FEMALE, Route: INTRAPERITONEAL, 25 NMOL TOTAL DOSE INJECTED IN DOSES OF 1/7 ON DAY 1, 2/7 ON DAY 8, AND 4/7 ON DAY 15 OF LIFE (STUDY DURATION: 35 WK), Tumor Site: Type of Lesion: LIVER: TUMOR, LUNG: TUMOR) is “active; positive”; the carcinogen call (Species: MOUSE, Strain/Sex: ICR/MALE, Route: INTRAPERITONEAL, 25 NMOL (TOTAL DOSE) ADMINISTERED IN DOSES OF 1/7, 2/7, AND 4/7 ON DAYS 1, 7, AND 15 OF LIFE, RESPECTIVELY (STUDY DUR, Tumor Site: Type of Lesion: LUNG: TUMOR, LIVER: TUMOR) was “active; positive”; the carcinogen call (Species: MOUSE, Strain/Sex: ICR/MALE, Route: INTRAPERITONEAL, 25 NMOL TOTAL DOSE INJECTED IN DOSES OF 1/7 ON DAY 1, 2.7 ON DAY 8, AND 4/7 ON DAY 15 OF LIFE (STUDY DURATION: 35 WK), Tumor Site: Type of Lesion: LUNG:TUMOR, LIVER: TUMOR) was “active; positive”; the carcinogen call (Species: RAT, Strain/Sex: CD-1/FEMALE, Route: INJECTION, 0.2 UMOL IN 0.1 ML DMSO INJECTED BENEATH EACH OF THE 6 NIPPLES ON THE LEFT SIDE (STUDY DURATION: 41 WK), Tumor Site: Type of Lesion: MAMMARY GLAND: TUMOR) is “active; positive”; the carcinogen call (Species: RAT, Strain/Sex: STRAIN-CD/FEMALE, Route: INJECTION, 0.2 UMOL IN 0.1 ML DMSO INJECTED UNDER EACH OF THE 3 LEFT THORACIC NIPPLES FOLLOWED THE NEXT DAY BY SIMILAR TREATMENT, Tumor Site: Type of Lesion: MAMMARY GLAND: TUMOR) was “active; positive”.

Take `ClC1=C(Cl)[C@]2(Cl)[C@@H]3[C@H]4C[C@H]([C@@H]5O[C@H]45)[C@@H]3[C@@]1(Cl)C2(Cl)Cl`: the carcinogen call was “inactive; negative” (Species: MOUSE, Strain/Sex: B6C3F1/FEMALE, Route: ORAL, 2.5, 5 PPM IN DIET, TWA, 2.5, 5 PPM IN DIET, TWA); “inactive; negative” (Species: MOUSE, Strain/Sex: B6C3F1/MALE, Route: ORAL, 1.6, 3.2 PPM IN DIET, TWA, 1.6, 3.2 PPM IN DIET, TWA); “inactive; negative” (Species: RAT, Strain/Sex: OSBORNE-MENDEL/FEMALE, Route: ORAL, 3, 6 PPM IN DIET, TWA, 3, 6 PPM IN DIET, TWA); “inactive; negative” (Species: RAT, Strain/Sex: OSBORNE-MENDEL/MALE, Route: ORAL, 2.5, 5 PPM IN DIET, TWA, 2.5, 5 PPM IN DIET, TWA).

In the case of `CO[C@@H]1[C@@H](O[C@@H]2O[C@H](C)[C@@H](O[C@H]3C[C@@](C)(O)[C@@H](OC(=O)CC(C)C)[C@H](C)O3)[C@H](N(C)C)[C@H]2O)[C@@H](CC=O)C[C@@H](C)[C@@H](O)/C=C/C=C/C[C@@H](C)OC(=O)C[C@H]1OC(C)=O`, the carcinogen call is “inactive; negative” (Species: RAT, Strain/Sex: F344/FEMALE, Route: ORAL, 1.25, 2.5% IN DIET FOR 104 WK (STUDY DURATION: 106 WK), 1.25, 2.5% IN DIET FOR 104 WK (STUDY DURATION: 106 WK)) and “inactive; negative” (Species: RAT, Strain/Sex: F344/MALE, Route: ORAL, 1.25, 2.5% IN DIET FOR 104 WK (STUDY DURATION: 106 WK)).

For `OC(Cn1cncn1)(Cn1cncn1)c1ccc(F)cc1F`, the carcinogen call (Species: RAT, Strain/Sex: SPRAGUE-DAWLEY/FEMALE, Route: ORAL, 2.5, 5, 10 MG/KG IN DIET FOR 24 MO (STUDY DURATION: 24 MO), 2.5, 5, 10 MG/KG IN DIET FOR 24 MO (STUDY DURATION: 24 MO)) was “inactive; negative” and the carcinogen call (Species: RAT, Strain/Sex: SPRAGUE-DAWLEY/MALE, Route: ORAL, 2.5, 5, 10 MG/KG IN DIET FOR 24 MO (STUDY DURATION: 24 MO), 2.5, 5, 10 MG/KG IN DIET FOR 24 MO (STUDY DURATION: 24 MO), Tumor Site: Type of Lesion: LIVER: HEPATOCELLULAR ADENOMA) is “active; positive”.
